Measurements as given in patent publication US11052098B2, “Composition containing araloside for external application to skin” (Amorepacific Corporation, priority 2015, dated 2021).

What was measured:
keratin 10 = assay: Recovery of keratin 10 marker gene expression in fine dust-treated keratinocytes (quantitative real-time PCR); format: cell-based; conditions: Human neonatal epidermal keratinocytes; 100 ppm fine dust 24 hours, then 50 ppm araloside for 5 days; FIG. 1; compared to fine dust only and untreated group
Experimental: (§1) Human neonatal epidermal keratinocytes (HEK; Lonza, NHEK-Neo-Neonatal Normal. Human Epidermal Keratinocytes, Pooled) were dispensed in medium (KBM-gold, Lonza) in a 6-well plate at a density of 1×10^5 cells per well and cultured at 37° C. for 24 hours. 100 ppm of fine dust was treated in the well and subjected to stimulation for 24 hours, which was then treated with medium (KBM-gold, Lonza) containing 50 ppm each of […] and araloside X and incubated at 37° C. for 5 days. Then, RNA was extracted from the HEK cells incubated for 5 days using an RNeasy mini kit (Qiagen), and then a cDNA was synthesized through an RT-PCR process using a Superscript III kit (Invitrogen). To confirm the expression level of keratin 1 and keratin 10 genes, a probe (TaqMan™ fluorogenic probe, Hs00196158_m1, Hs00166289_m1) was used to conduct the quantitative real-time PCR process and observe the expression behavior of keratin 1 and keratin. 10. The control group used an untreated group not treated with fine dust and also not treated with araloside V, araloside VII and araloside X; and fine dust-treated group treated with fine dust but not, treated with araloside V, araloside VII and araloside X.

IL8 = IL8 protein production in fine dust-stimulated human fibroblasts (ELISA); format: cell-based; conditions: 100 ppm fine dust 24 hours, then sample 50 ppm for 48 hours, culture solution ELISA, fine dust only = 246
Experimental: (§2) Human fibroblasts (PromoCell, Germany) were inoculated in a 6-well plate at a concentration of 1×10^5 cells, and cultured in an incubator (37° C., 5% CO2) for 24 hours. 100 ppm of fine dust was treated in the well and subjected to stimulation for 24 hours, which was then treated with medium containing 50 ppm each of araloside V, araloside VII and araloside X and allowed to react for 48 hours. After completion of the reaction, the culture solution was collected and subjected to ELISA analysis. At this time, α-bisabolol, a substance frequently used as an anti-inflammatory and irritation-mitigating agent, was used as a control group. Measurement of the production amount of IL8 and IL1B proteins was carried out using a ThermoFisher's kit, and experiments were conducted according to the method described in the company's manual.

IL1B = IL1B protein production in fine dust-stimulated human fibroblasts (ELISA); format: cell-based; conditions: 100 ppm fine dust 24 hours, then sample 50 ppm for 48 hours, culture solution ELISA, fine dust only = 311
Experimental: as §2

keratin 1 = assay: Recovery of keratin 1 marker gene expression in fine dust-treated keratinocytes (quantitative real-time PCR); format: cell-based; conditions: Human neonatal epidermal keratinocytes; 100 ppm fine dust 24 hours, then 50 ppm araloside for 5 days; FIG. 1; compared to fine dust only and untreated group
Experimental: as §1

MMP-1 = MMP-1 inhibitory effect in fine dust- and UVB-treated Hs68 fibroblasts (MMP-1 assay kit); format: cell-based, Human; conditions: 100 ppm fine dust 24 hours, UVB 30 mJ/M^2, then 50 ppm araloside for 48 hours, FIG. 2, compared to fine dust only and untreated group
Experimental: Human neonatal fibroblast HS68 was purchased from Cascade Biologics (Invitrogen, USA) and used. Hs68 was cultured using DMEM medium supplemented with 10% FBS (fetal bovine serum), 50 U/ml of penacillin and 50 μg/ml of streptomycin. Cells were cultured under the conditions of 37° C., 5% CO2. The Hs68 was added to a 12-well plate at a concentration of 7.5×10^4 cells/well and cultured overnight. On the next day, the medium was replaced with FBS-free medium having a fine dust concentration of 100 ppm and cultured for 24 hours. After irradiating with UVB 30 mJ/M^2, the araloside V, araloside VII, and araloside X were treated at a concentration of 50 ppm for 48 hours, respectively. After culture, the medium was collected and the production amount of MMP-1 was measured using an MMP-1 assay kit (GE healthcare). The control group used an untreated group not treated with fine dust and also not treated with araloside V, araloside VII and araloside X; and a fine dust-treated group treated with fine dust but not treated with araloside V, araloside VII and araloside X.

[1] = test system: Reactive Oxygen Species (ROS); assay: Inhibitory effect on reactive oxygen species (ROS) production in fine dust-stimulated keratinocytes (DCF-DA fluorescence); format: cell-based; conditions: human keratinocytes; sample 50 ppm for 2 hours, then treated with 100 ppm of fine dust; vehicle control = 100, fine dust only = 384
Experimental: 5×10^4 Keratinocytes isolated from human epidermal tissue were added to each well of a 24-well plate and allowed to adhere for 24 hours. Then, […] and araloside X were treated at 50 ppm, respectively. At this time, for comparison, a control group (untreated group) was not treated with araloside V, araloside VII and araloside X, and a positive control group was treated with a known antioxidant ascorbic acid. After 2 hours, the culture solution was removed, and then 100 μl of phosphate buffered saline (PBS) containing 100 ppm of fine dust was added to each well. Then, the amount of active oxygen species increased by fine dust stimulation was quantified. The amount of ROS was quantified with reference to Tan's method of measuring the fluorescence of DCF-DA (dichlorofluorescin diacetate) oxidized by ROS (Tan et al., 1998, J. Cell Biol. Vol. 141, pp 1423-1432).

| Compound | expression of keratin 10 gene (keratin 10) | IL8 (production amount of protein) (IL8) | IL1B (production amount of protein) (IL1B) | expression of keratin 1 gene (keratin 1) | MMP-1 activity (production amount of MMP-1) (MMP-1) | amount of ROS, ratio to control group treated with only vehicle (=100) [1] |
| --- | --- | --- | --- | --- | --- | --- |
| CC1(C)CC[C@]2(C(=O)O[C@@H]3O[C@H](CO)[C@@H](O)[C@H](O)[C@H]3O)CC[C@]3(C)C(=CC[C@@H]4[C@@]5(C)CC[C@H](O[C@@H]6O[C@H](CO)[C@@H](O)[C@H](O[C@@H]7O[C@H](CO)[C@@H](O)[C@H](O)[C@H]7O)[C@H]6O[C@@H]6O[C@H](CO)[C@@H](O)[C@H](O)[C@H]6O)[C@@](C)(CO)[C@@H]5CC[C@]43C)[C@@H]2C1 [araloside VII] | a level equal to or higher than that in the untreated group | 184 pg/mL | 256 pg/mL | a level equal to or higher than that in the untreated group | to about the level of MMP-1 activity in the untreated (control) group | 105 |
| CC1(C)CC[C@]2(C(=O)O[C@@H]3O[C@H](CO)[C@@H](O)[C@H](O)[C@H]3O)CC[C@]3(C)C(=CC[C@@H]4[C@@]5(C)CC[C@H](O[C@H]6O[C@H](CO)[C@@H](O)[C@@H](O[C@@H]7O[C@H](CO)[C@@H](O)[C@H](O)[C@H]7O)[C@H]6O[C@@H]6O[C@H](CO)[C@@H](O)[C@H](O)[C@H]6O)C(C)(C)[C@@H]5CC[C@]43C)[C@@H]2C1 [araloside V] | a level equal to or higher than that in the untreated group | 189 pg/mL | 243 pg/mL | a level equal to or higher than that in the untreated group | to about the level of MMP-1 activity in the untreated (control) group | 110 |
| CC1(C)CC[C@]2(C(=O)O[C@@H]3O[C@H](CO)[C@@H](O)[C@H](O)[C@H]3O)CC[C@]3(C)C(=CC[C@@H]4[C@@]5(C)CC[C@H](O[C@@H]6O[C@H](CO)[C@@H](O)[C@H](O[C@@H]7O[C@H](CO)[C@@H](O)[C@H](O[C@@H]8O[C@H](CO)[C@@H](O)[C@H](O)[C@H]8O)[C@H]7O)[C@H]6O[C@@H]6O[C@H](CO)[C@@H](O)[C@H](O)[C@H]6O)C(C)(C)[C@@H]5CC[C@]43C)[C@@H]2C1 [araloside X] | a level equal to or higher than that in the untreated group | 187 pg/mL | 252 pg/mL | a level equal to or higher than that in the untreated group | to about the level of MMP-1 activity in the untreated (control) group | 102 |
| O=C1O[C@H]([C@@H](O)CO)C(O)=C1O [ascorbic acid, reference compound] | – | – | – | – | – | 200 |
| α-bisabolol [reference compound] | – | 180 pg/mL | 214 pg/mL | – | – | – |
